In ChEMBL document CHEMBL4742389, “Cyclohexyl benzamide compounds” (2019) one finds Efficacy, EC50 and ED50 data, which are given here for twelve compounds.

Experiment [1] has as its target T1, Probable G-protein coupled receptor 142 (Homo sapiens) (UniProt Q7Z601).
T1 sequence (whole entry): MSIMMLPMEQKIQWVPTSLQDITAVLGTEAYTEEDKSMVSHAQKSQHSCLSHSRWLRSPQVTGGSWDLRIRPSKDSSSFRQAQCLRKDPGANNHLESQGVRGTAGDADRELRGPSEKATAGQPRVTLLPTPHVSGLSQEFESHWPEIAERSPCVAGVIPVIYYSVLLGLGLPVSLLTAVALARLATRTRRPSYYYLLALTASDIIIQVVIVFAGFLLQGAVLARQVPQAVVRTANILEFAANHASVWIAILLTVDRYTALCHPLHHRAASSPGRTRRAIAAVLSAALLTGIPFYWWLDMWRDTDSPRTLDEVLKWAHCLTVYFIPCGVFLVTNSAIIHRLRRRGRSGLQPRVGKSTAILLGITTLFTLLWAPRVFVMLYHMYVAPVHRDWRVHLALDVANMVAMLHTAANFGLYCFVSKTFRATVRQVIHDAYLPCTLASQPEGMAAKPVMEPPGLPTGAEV
The experiment is described as follows: Agonist activity at human GPR142 receptor expressed in HEK293 cells assessed as accumulation of inositol phosphate incubated for 1 hr followed by IP1-d2 addition by HTRF assay relative to control. Format: functional, cell-based. The following applies: filed as agonist. On the technique in general: In TR-FRET formats the signal depends on donor and acceptor labels being close together.

Experiment [2] deals with T2, Probable G-protein coupled receptor 142 (Homo sapiens, UniProt Q7Z601).
T2 sequence (Q7Z601 whole entry): T1 sequence (whole entry)
The experiment is described as follows: Agonist activity at human GPR142 receptor expressed in HEK293 cells assessed as accumulation of inositol phosphate incubated for 1 hr followed by IP1-d2 addition by HTRF assay. Format: functional, cell-based.

For another experiment, the system named is Mus musculus. The experiment is described as follows: Antidiabetic activity in po dosed lean C57BL/6J mouse assessed as reduction in glucose level administered 90 mins prior to glucose challenge measured for 60 mins by IPGTT. Format: functional. The note with it: 2.5 h, time 150 min.

Some results are limits rather than exact numbers.

In general, EC50 refers to the concentration giving half of the maximal effect. Take `Cc1nc[nH]c1-c1nnc([C@H]2CCC[C@@H](N(C)C(=O)c3cccc(Cl)c3)C2)[nH]1`: the Efficacy in experiment [1] amounted to 120%. For the same compound, the EC50 in experiment [2] is < 120 nM. For the compound `Cc1ncn(C)c1-c1nnc([C@H]2CCC[C@@H](N(C)C(=O)c3cccc(C(F)(F)F)c3)C2)[nH]1`, the Efficacy in experiment [1] was 120%. Moreover, the EC50 in experiment [2] was < 120 nM.

By ED50 is commonly meant the dose at which the effect has come halfway, by size or by number of responders. As to `Cc1ncn(C)c1-c1nnc([C@H]2CCC[C@@H](N(C)C(=O)c3cccc(Cl)c3)C2)[nH]1`, the Efficacy in experiment [1] came out at 110%. The ED50 in the experiment with Mus musculus came out at 0.25 mg/kg. For `COCCn1cnc(C)c1-c1nnc([C@H]2CCC[C@@H](N(C)C(=O)c3cccc(Cl)c3)C2)[nH]1`, the Efficacy in experiment [1] was determined as 120%. The EC50 in experiment [2] was < 120 nM. The matching figures for `Cc1nc[nH]c1-c1nnc([C@H]2CCC[C@@H](N(C)C(=O)c3cccc(C(F)(F)F)c3)C2)[nH]1`: 120% and < 120 nM. Regarding `Cc1ncc(-c2nnc([C@H]3CCC[C@@H](N(C)C(=O)c4cccc(C(F)(F)F)c4)C3)[nH]2)[nH]1`, the Efficacy in experiment [1] worked out at 120%. The EC50 in experiment [2] is < 120 nM. For `Cc1ncn(CC(F)F)c1-c1nnc([C@H]2CCC[C@@H](N(C)C(=O)c3cccc(C(F)(F)F)c3)C2)[nH]1`, in experiment [1], the Efficacy worked out at 120%. Further, the EC50 in experiment [2] is < 120 nM. The matching figures for `Cc1ncc(-c2nnc([C@H]3CCC[C@@H](N(C)C(=O)c4cccc(Cl)c4)C3)[nH]2)n1C`: 120% and < 120 nM. In the case of `Cc1ncn(C)c1-c1nnc([C@@H]2CCC[C@H](N(C)C(=O)c3cccc(Cl)c3)C2)[nH]1`, the Efficacy in experiment [1] was found to be 120%. On to `CN(C(=O)c1cccc(C(F)(F)F)c1)[C@@H]1CCC[C@H](c2nnc(-c3cnc4n3CCOC4)[nH]2)C1`, for which the Efficacy in experiment [1] turned out to be 120%. In addition, in experiment [2], the EC50 was < 120 nM.

On to `Cc1nc[nH]c1-c1nnc([C@H]2CCC[C@@H](N(C)C(=O)c3cccc(OC(F)(F)F)c3)C2)[nH]1`, for which the Efficacy in experiment [1] came out at 120%. Besides, in experiment [2], the EC50 was < 120 nM. The corresponding values for `Cc1ncc(-c2nnc([C@H]3CCC[C@@H](N(C)C(=O)c4cccc(C(F)(F)F)c4)C3)[nH]2)n1C` are 120% and < 120 nM.
